According to patent US4400384A, “5-o-Cyanobenzyl-4,5,6,7-tetrahydrothieno [3,2-c] pyridine methanesulfonate and other novel salts thereof” (Sanofi, S.A., priority 1980, dated 1983):
Structures can show the parent of a compound that is named as a salt.

Assays:
[1] = test system: blood-platelet aggregation (ADP); experiment: Inhibitor action on blood-platelet aggregation, ADP method (ex vivo after gastric tube dosing); type: in vivo, female rats of the Wistar type; details: 100 mg/Kg base equivalent at 48, 24 and 2 h before blood drawing
Procedure: (§1) The inhibitor action on blood-platelet aggregation of the salts of the present invention was determined by two different standard methods known to the art.
(§2) The first method, involving the use of ADP (adenosine diphosphate), is that of Ferrand J. C., Gaich C., Dumas, A.--EVALUATION DE L' EFFET ANTI-AGREGANT DE LA TICLOPIDINE PAR UNE TECHNIQUE SUR SANG TOTAL. COMM. SOCIETE DE BIOLOGIE DE TOULOUSE (TOULOUSE Feb. 9, 1978), RESUME IN: REV MED TOULOUSE, 1978, 14, (SUPPL. 5) 680, referred to hereinafter as the ADP method.
(§3) Groups of 10 female rats of the Wistar type were each dosed with one of the base or one of the salts of the invention and with the corresponding maleate salt of Amselem U.S. Pat. No. 4,097,482, at periods of 48 hours, 24 hours and 2 hours prior to drawing blood for testing by the ADP and collagen techniques referred to above. The active medicaments were administered by means of a gastric tube in the form of a 5% aqueous solution of gum arabic. A dosage level of 100 mg/Kg was used for the base, and for the salts an amount was used sufficient to provide the equivalent amount of the base portion of the salt.

[2] = test system: blood-platelet aggregation (collagen); experiment: Inhibitor action on blood-platelet aggregation, collagen method (ex vivo after gastric tube dosing); type: in vivo, female rats of the Wistar type; details: 100 mg/Kg base equivalent at 48, 24 and 2 h before blood drawing
Procedure: as §1
(§4) The second method is that described in Ferrand J. C., Lale A.--NUMERATION ET AGREGATION PLAQUETTAIRE A L AIDE DE L AUTOCOUNTER. APPLICATION A L ETUDE DE LA TICLOPIDINE. COMM. SYMPOSIUM TECHNICON INDUSTRIE (PARIS, June 15, 1978); Ferrand J. C., Lale A.--EVALUATION EX-VIVO DE L AGREGATION PLAQUETTAIRE PAR UNE TECHNIQUE AUTOMATIQUE SUR SANG TOTAL COMM. SOCIETE FRANCAISE DE BIOLOGIE CLINIQUE (PARIS Sept. 28, 1979); and J. C. Ferrand, A. Lale, D. Aubert and G. Barthelemy--APPRECIATION QUANTITATIVE DE L' ACTIVITE ANTI-AGREGANTE DE LA TICLOPIDINE PAR VOIE AUTOMATIQUE. COMM. REUNION DE L' ASOCIATION FRANCAISE DE PHARMACOLOGISTES DIJON (May 2-3, 1980), and is referred to hereafter as the collagen method.
as §3

[3] = test system: blood-platelet aggregation; experiment: Inhibition of blood-platelet aggregation (general statement); type: in vivo; details: result in words
Procedure: as §1, §2
as §4, with “method. […]” for “method.”

[4] = prior art maleate; cited from earlier work
[5] = prior art maleate; cited from earlier work; remark: listed apart in the source

Q: For N#Cc1ccccc1CN1CCc2sccc2C1 [Hydrochloride, 5-o-cyanobenzyl-4,5,6,7-tetrahydrothieno [3,2-c] pyridine], which “BLOOD PLATELET AGGREGATION, ADP, 1 mn 30 s” value ([1]; controls 0.29, 100 mg/kg) is on record?
A: The value was 0.82.

Q: What about the “BLOOD PLATELET AGGREGATION, ADP, 3 mn” value ([1]; controls 0.40, 100 mg/kg) of the same molecule?
A: The value was 0.82.

Q: And the “BLOOD PLATELET AGGREGATION, COLLAGEN” value ([2]; controls 2.53, 100 mg/kg)?
A: Its value is 0.84.

Q: Which “BLOOD PLATELET AGGREGATION, ADP, 1 mn 30 s” value ([1]; controls 0.29) does the source give for N#Cc1ccccc1CN1CCc2sccc2C1.O=C(O)/C=C\C(=O)O [Maleate, 5-o-cyanobenzyl-4,5,6,7-tetrahydrothieno [3,2-c] pyridine maleate, reference compound] here?
A: Its value is 0.70.

Q: What about the “BLOOD PLATELET AGGREGATION, ADP, 3 mn” value ([1]; controls 0.40) of the same molecule?
A: Its value is 0.81.

Q: And the “BLOOD PLATELET AGGREGATION, COLLAGEN” value ([2]; controls 2.53)?
A: Its value is 0.80.

Q: And the “inhibitor action against blood-platelet aggregation” value [3]?
A: The value was “substantial activity in the inhibition of blood-platelet aggregation”.

Q: And the “anti-inflammatory activity (prior art salt)” value [4]?
A: Its value is “not free of anti-inflammatory”.

Q: And the “vasodilator activity (prior art salt)” value [5]?
A: Its value is “not free of anti-inflammatory or vasodilator activity”.

Q: Which results are given for N#Cc1ccccc1CN1CCc2sccc2C1 [Hemitartrate, 5-o-cyanobenzyl-4,5,6,7-tetrahydrothieno [3,2-c] pyridine]?
A: BLOOD PLATELET AGGREGATION, ADP, 1 mn 30 s ([1]; controls 0.29, 100 mg/kg): 0.74; BLOOD PLATELET AGGREGATION, ADP, 3 mn ([1]; controls 0.40, 100 mg/kg): 0.84; BLOOD PLATELET AGGREGATION, COLLAGEN ([2]; controls 2.53, 100 mg/kg): 0.74

Q: Which results are given for N#Cc1ccccc1CN1CCc2sccc2C1 [Nitrate, 5-o-cyanobenzyl-4,5,6,7-tetrahydrothieno [3,2-c] pyridine]?
A: BLOOD PLATELET AGGREGATION, ADP, 1 mn 30 s ([1]; controls 0.29, 100 mg/kg): 0.84; BLOOD PLATELET AGGREGATION, ADP, 3 mn ([1]; controls 0.40, 100 mg/kg): 0.83; BLOOD PLATELET AGGREGATION, COLLAGEN ([2]; controls 2.53, 100 mg/kg): 0.91

Q: What does the source list for N#Cc1ccccc1CN1CCc2sccc2C1 [Hemifumarate, 5-o-cyanobenzyl-4,5,6,7-tetrahydrothieno [3,2-c] pyridine]?
A: BLOOD PLATELET AGGREGATION, ADP, 1 mn 30 s ([1]; controls 0.29, 100 mg/kg): 0.76; BLOOD PLATELET AGGREGATION, ADP, 3 mn ([1]; controls 0.40, 100 mg/kg): 0.82; BLOOD PLATELET AGGREGATION, COLLAGEN ([2]; controls 2.53, 100 mg/kg): 0.42
